The source of these data is patent US20170159130A1, “TRANSCRIPTIONAL CLASSIFICATION AND PREDICTION OF DRUG RESPONSE (T-CAP DR)” (priority 2015, published 2017).

In this test the test system is human myeloma cell lines (HMCLs). As to the kind of experiment: In vitro chemosensitivity (cytotoxicity) assay, CellTiter-Glo luminescent cell viability, panel of 50 HMCLs. Conditions: for pIC50: single agent, viability 48 hours post treatment; for AUSC (area under the survival curve), Maximum / AUSC (area under the survival curve), Mean / AUSC (area under the survival curve), Median / AUSC (area under the survival curve), Minimum: trapezoidal rule, 48 hours post treatment. In kind it is cell-based. On the procedure:
Fifty (50) HMCLs were procured from various institutions, established and characterized, and maintained in Human Myeloma Cell Line (HMCL) media with IL-6 (Mitra et al., 2016). Table 1A provides the cytogenetic characteristics of the […] cytotoxicity assays were performed on the HMCLs to create a drug sensitivity profile in response to treatment with increasing concentrations of Bz, Cz, Ix and Opz as single agents and half-maximal inhibitory concentration/IC50 values and area under the survival curve/AUSC were calculated as described in Mitra et al. (2016). Briefly, cells were counted using Countess automated cell counter (Invitrogen) and seeded in 96-well plates at a concentration of 4×10^5 cells per mL. After 24 hours, cells were treated with increasing concentrations of Bz, Cz, Ix and Opz as single agents. […] Percent survival values were normalized to untreated controls and half-maximal inhibitory concentration/IC50 values were determined by calculating the nonlinear regression using sigmoidal dose-response equation (variable slope). Area under the survival curve/AUSC was calculated using trapezoidal rule and log2-transformed for further statistical analysis (Mitra et al., 2016). Caspase3/7 activity were evaluated using Caspase-Glo®3/7 Assay kit (Promega) on Synergy 2 Microplate Reader.
Background: Cellular ATP, detected with luciferase, serves as a proxy for viable cell number.

The mark [1] stands for this setting: Homo sapiens, maximum across panel of 50 HMCLs, read-out: IC50, Maximum.
The mark [2] stands for this setting: Homo sapiens, mean across panel of 50 HMCLs, read-out: IC50, Mean.
Where [3] appears, read: Homo sapiens, median across panel of 50 HMCLs, read-out: IC50, Median.
Where [4] appears, read: Homo sapiens, minimum across panel of 50 HMCLs, read-out: IC50, Minimum.
Setting [5] is: maximum across panel of 50 HMCLs.
Setting [6] is: median across panel of 50 HMCLs.
The mark [7] stands for this setting: minimum across panel of 50 HMCLs.

pIC50: −log10 of the molar value. Like-named read-outs stand apart in the source and are kept apart here.

Take `CC(C)C[C@H](NC(=O)[C@H](Cc1ccccc1)NC(=O)c1cnccn1)B(O)O` [Bortezomib]: the negative logarithm of the IC50 (pIC50) is, setting by setting: under setting [1], 6.91; under setting [2], 7.77; under setting [3], 7.93; under setting [4], 8.55. In addition, the “AUSC (area under the survival curve), Maximum” value (from here on “AUSC … Maximum”) under setting [5] turned out to be 38.974 µM. For the same molecule, under “mean across panel of 50 HMCLs”, the “AUSC (area under the survival curve), Mean” value (“AUSC … Mean” for short) was 2.7001 µM. The “AUSC (area under the survival curve), Median” value (from here on “AUSC … Median”) under setting [6] came to 1524.0 nM. In addition, under setting [7], the “AUSC (area under the survival curve), Minimum” value (“AUSC … Minimum” below) was found to be 319.6 nM.
With `CC(C)C[C@H](NC(=O)[C@H](CCc1ccccc1)NC(=O)CN1CCOCC1)C(=O)N[C@@H](Cc1ccccc1)C(=O)N[C@@H](CC(C)C)C(=O)[C@@]1(C)CO1` [Carfilzomib], the pIC50 runs as follows: under setting [1], 7.26; under setting [2], 7.96; under setting [3], 8.15; under setting [4], 9.15. The “AUSC … Maximum” value under setting [5] worked out at 19.097 µM. The “AUSC … Mean” value (mean across panel of 50 HMCLs) amounted to 3.5034 µM. Under setting [6], the “AUSC … Median” value turned out to be 1448.5 nM. Besides, under setting [7], the “AUSC … Minimum” value is listed as 375.5 nM.
Regarding `CC(C)C[C@H](NC(=O)CNC(=O)c1cc(Cl)ccc1Cl)B(O)O` [Ixazomib], the pIC50 runs as follows: (maximum across panel of 50 HMCLs, read-out: IC50, Maximum) 5.32; (mean across panel of 50 HMCLs, read-out: IC50, Mean) 6.81; (median across panel of 50 HMCLs, read-out: IC50, Median) 7.38; (minimum across panel of 50 HMCLs, read-out: IC50, Minimum) 7.82. Under setting [5], the “AUSC … Maximum” value is 46.494 µM. The “AUSC … Mean” value (mean across panel of 50 HMCLs) came to 10.03 µM. Further, under setting [6], the “AUSC … Median” value worked out at 6456.0 nM. The “AUSC … Minimum” value under setting [7] amounted to 1702.0 nM.
For the molecule `COC[C@H](NC(=O)c1cnc(C)s1)C(=O)N[C@@H](COC)C(=O)N[C@@H](Cc1ccccc1)C(=O)[C@@]1(C)CO1` [Oprozomib], the pIC50 runs as follows: under setting [1], 6.11; under setting [2], 7.34; under setting [3], 7.63; under setting [4], 8.12. Besides, the “AUSC … Maximum” value under setting [5] came out at 59.917 µM. For the same molecule, the “AUSC … Mean” value (mean across panel of 50 HMCLs) was 5.017 µM. Further, the “AUSC … Median” value under setting [6] was determined as 2885.0 nM. Further, under setting [7], the “AUSC … Minimum” value amounted to 1050.0 nM.

As usually defined, the pIC50 is the IC50 on a negative log10 scale, so that one unit is a factor of ten.
